Patent publication US10844077B2, “Thiazolyl-containing compounds for treating proliferative diseases” (Dana-Farber Cancer Institute, Inc., priority 2014, dated 2020)
Where two headings read alike, the source gives them in different places.

Columns and labels:
Type in all cases: cell-based
kinases in BCWM.1 cells [1] = target: kinases in BCWM.1 cells (Homo sapiens, UniProt Q6PHR2); settings: ULK3; Lys2; 1 μM, 90 min; GF
Procedure: (§1) The cells were harvested and lysed. […] Bound kinases were identified and quantitated by ACTIVX as described in Patricelli et al., Biochemistry, 2007, 46(2): 350-358. The compounds were tested in duplicates against duplicate or quadruplicate control samples.

kinases in BCWM.1 cells [2] = target: kinases in BCWM.1 cells (Homo sapiens, UniProt Q58A45); settings: PAN3; Protein Kinase Domain; 1 μM, 90 min; GF
Procedure: as §1

kinases in BCWM.1 cells [3] = target: kinases in BCWM.1 cells (Homo sapiens, UniProt Q9BYT3); settings: STK33; Lys2; 1 μM, 90 min; GF
Procedure: as §1

kinases in BCWM.1 cells [4] = target: kinases in BCWM.1 cells (Homo sapiens, UniProt O95747); settings: OSR1; Lys2; 1 μM, 90 min; GF
Procedure: as §1

kinases in BCWM.1 cells [5] = target: kinases in BCWM.1 cells (Homo sapiens, UniProt P30291); settings: Wee1; Lys2; 1 μM, 90 min; GF
Procedure: as §1

kinases in BCWM.1 cells [6] = target: kinases in BCWM.1 cells (Homo sapiens, UniProt Q9NYL2); settings: ZAK; Lys1; 1 μM, 90 min; GF
Procedure: as §1

kinases in BCWM.1 cells [7] = target: kinases in BCWM.1 cells (Homo sapiens, UniProt Q8TBX8); settings: PIP4K2C; ATP; 1 μM, 90 min; GF
Procedure: as §1

kinases in BCWM.1 cells [8] = target: kinases in BCWM.1 cells (Homo sapiens, UniProt P51955); settings: NEK2; Lys2; 1 μM, 90 min; GF
Procedure: as §1

kinases in BCWM.1 cells [9] = target: kinases in BCWM.1 cells (Homo sapiens, UniProt P48736); settings: PIK3CG; ATP; 1 μM, 90 min; GF
Procedure: as §1

kinases in BCWM.1 cells [10] = target: kinases in BCWM.1 cells (Homo sapiens, UniProt Q8TD19); settings: NEK9; Lys2; 1 μM, 90 min; GF
Procedure: as §1

kinases in BCWM.1 cells [11] = target: kinases in BCWM.1 cells (Homo sapiens, UniProt Q15418); settings: Lys2, 1 μM, 90 min, GF
Procedure: as §1

kinases in BCWM.1 cells [12] = target: kinases in BCWM.1 cells (Homo sapiens, UniProt Q16539); settings: p38a, 1 μM, 90 min, GF
Procedure: as §1

kinases in BCWM.1 cells [13] = target: kinases in BCWM.1 cells (Homo sapiens, UniProt Q96S44); settings: PRPK; ATP Loop; 1 μM, 90 min; GF
Procedure: as §1

kinases in BCWM.1 cells [14] = target: kinases in BCWM.1 cells (Homo sapiens, UniProt Q13523); settings: PRP4; Lys2; 1 μM, 90 min; GF
Procedure: as §1

kinases in BCWM.1 cells [15] = target: kinases in BCWM.1 cells (Homo sapiens, UniProt Q9Y572); settings: RIPK3; Lys2; 1 μM, 90 min; GF
Procedure: as §1

kinases in BCWM.1 cells [16] = target: kinases in BCWM.1 cells (Homo sapiens, UniProt Q9BZL6); settings: PKD2; Lys1; 1 μM, 90 min; GF
Procedure: as §1

kinases in BCWM.1 cells [17] = target: kinases in BCWM.1 cells (Homo sapiens, UniProt Q9NRH2); settings: SNRK; Lys2; 1 μM, 90 min; GF
Procedure: as §1

kinases in BCWM.1 cells [18] = target: kinases in BCWM.1 cells (Homo sapiens, UniProt Q96PY6); settings: NEK1; Lys2; 1 μM, 90 min; GF
Procedure: as §1

kinases in BCWM.1 cells [19] = target: kinases in BCWM.1 cells (Homo sapiens, UniProt P53350); settings: PLK1; Lys1; 1 μM, 90 min; GF
Procedure: as §1

kinases in BCWM.1 cells [20] = target: kinases in BCWM.1 cells (Homo sapiens, UniProt Q16512); settings: PKN1; Lys1; 1 μM, 90 min; GF
Procedure: as §1

kinases in BCWM.1 cells [21] = target: kinases in BCWM.1 cells (Homo sapiens, UniProt O75385); settings: ULK1; Lys2; 1 μM, 90 min; GF
Procedure: as §1

kinases in BCWM.1 cells [22] = target: kinases in BCWM.1 cells (Homo sapiens, UniProt Q7RTN6); settings: STLK5; Activation Loop; 1 μM, 90 min; GF
Procedure: as §1

kinases in BCWM.1 cells [23] = target: kinases in BCWM.1 cells (Homo sapiens, UniProt Q14289); settings: PYK2; Activation Loop; 1 μM, 90 min; GF
Procedure: as §1

kinases in BCWM.1 cells [24] = target: kinases in BCWM.1 cells (Homo sapiens, UniProt P42338); settings: PIK3CB; ATP; 1 μM, 90 min; GF
Procedure: as §1

kinases in BCWM.1 cells [25] = target: kinases in BCWM.1 cells (Homo sapiens, UniProt Q9Y2H1); settings: NDR2; Lys2; 1 μM, 90 min; GF
Procedure: as §1

kinases in BCWM.1 cells [26] = settings: 1 μM, 90 min, GF
Procedure: as §1

Chain of kinases in BCWM.1 cells (Homo sapiens, UniProt Q16539) (Q16539 2-360 limits assumed): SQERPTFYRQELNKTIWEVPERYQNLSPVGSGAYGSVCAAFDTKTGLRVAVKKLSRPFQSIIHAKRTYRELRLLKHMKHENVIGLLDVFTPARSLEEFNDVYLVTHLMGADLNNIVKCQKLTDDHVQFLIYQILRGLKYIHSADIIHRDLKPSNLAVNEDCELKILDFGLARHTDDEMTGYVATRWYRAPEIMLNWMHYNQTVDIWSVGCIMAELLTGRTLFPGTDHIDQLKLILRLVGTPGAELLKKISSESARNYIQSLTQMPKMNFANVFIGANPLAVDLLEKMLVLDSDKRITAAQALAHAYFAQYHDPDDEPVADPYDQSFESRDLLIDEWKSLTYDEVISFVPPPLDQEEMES
Chain of kinases in BCWM.1 cells (Homo sapiens, UniProt Q8TBX8) (Q8TBX8 2-421 limits assumed): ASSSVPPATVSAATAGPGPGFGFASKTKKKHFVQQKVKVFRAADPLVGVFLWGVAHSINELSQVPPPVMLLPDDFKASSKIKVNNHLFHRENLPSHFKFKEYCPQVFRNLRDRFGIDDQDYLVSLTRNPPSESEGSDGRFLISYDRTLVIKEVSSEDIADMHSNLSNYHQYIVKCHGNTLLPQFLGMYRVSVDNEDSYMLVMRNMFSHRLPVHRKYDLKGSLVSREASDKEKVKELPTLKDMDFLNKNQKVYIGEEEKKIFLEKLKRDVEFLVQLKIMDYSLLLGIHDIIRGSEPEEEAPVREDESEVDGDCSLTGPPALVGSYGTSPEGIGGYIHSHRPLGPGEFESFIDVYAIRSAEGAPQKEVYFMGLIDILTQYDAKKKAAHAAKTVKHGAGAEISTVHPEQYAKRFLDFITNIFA
Chain of kinases in BCWM.1 cells (Homo sapiens, UniProt Q9NYL2) (Q9NYL2 2-800 limits assumed): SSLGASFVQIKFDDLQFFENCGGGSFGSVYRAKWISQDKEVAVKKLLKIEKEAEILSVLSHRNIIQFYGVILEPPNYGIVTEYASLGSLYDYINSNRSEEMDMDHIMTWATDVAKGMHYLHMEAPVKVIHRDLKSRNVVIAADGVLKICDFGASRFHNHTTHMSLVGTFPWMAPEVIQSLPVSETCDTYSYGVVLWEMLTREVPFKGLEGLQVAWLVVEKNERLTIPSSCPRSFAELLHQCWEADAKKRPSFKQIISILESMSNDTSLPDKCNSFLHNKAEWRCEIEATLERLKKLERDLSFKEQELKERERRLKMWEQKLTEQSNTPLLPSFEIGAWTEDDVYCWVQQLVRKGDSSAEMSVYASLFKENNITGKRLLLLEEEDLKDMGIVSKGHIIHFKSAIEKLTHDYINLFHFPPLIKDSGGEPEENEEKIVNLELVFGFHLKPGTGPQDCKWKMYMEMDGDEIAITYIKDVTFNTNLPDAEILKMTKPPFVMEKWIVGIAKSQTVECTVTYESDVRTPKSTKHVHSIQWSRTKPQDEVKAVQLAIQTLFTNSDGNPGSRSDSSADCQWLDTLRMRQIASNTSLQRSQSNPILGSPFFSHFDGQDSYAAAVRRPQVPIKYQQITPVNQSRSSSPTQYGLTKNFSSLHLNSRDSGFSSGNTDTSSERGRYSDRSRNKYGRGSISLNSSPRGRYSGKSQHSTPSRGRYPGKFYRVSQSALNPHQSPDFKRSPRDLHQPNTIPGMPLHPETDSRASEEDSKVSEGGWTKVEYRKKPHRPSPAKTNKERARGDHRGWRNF
Chain of kinases in BCWM.1 cells (Homo sapiens, UniProt Q9Y2H1) (Q9Y2H1 2-464 limits assumed): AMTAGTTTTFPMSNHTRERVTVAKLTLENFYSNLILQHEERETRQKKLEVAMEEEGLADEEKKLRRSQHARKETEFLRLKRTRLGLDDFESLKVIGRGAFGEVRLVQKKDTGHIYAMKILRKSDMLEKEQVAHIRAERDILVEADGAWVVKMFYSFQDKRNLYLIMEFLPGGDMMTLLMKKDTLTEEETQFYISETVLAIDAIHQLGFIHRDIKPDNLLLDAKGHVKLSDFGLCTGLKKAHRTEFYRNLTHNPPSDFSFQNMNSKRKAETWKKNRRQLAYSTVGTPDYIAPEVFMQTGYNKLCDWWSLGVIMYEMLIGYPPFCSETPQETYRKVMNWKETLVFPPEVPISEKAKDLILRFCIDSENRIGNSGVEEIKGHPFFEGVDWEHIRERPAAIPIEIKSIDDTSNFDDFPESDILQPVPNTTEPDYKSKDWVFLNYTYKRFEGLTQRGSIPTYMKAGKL
Chain of kinases in BCWM.1 cells (Homo sapiens, UniProt Q13523) (Q13523 2-1007 limits assumed): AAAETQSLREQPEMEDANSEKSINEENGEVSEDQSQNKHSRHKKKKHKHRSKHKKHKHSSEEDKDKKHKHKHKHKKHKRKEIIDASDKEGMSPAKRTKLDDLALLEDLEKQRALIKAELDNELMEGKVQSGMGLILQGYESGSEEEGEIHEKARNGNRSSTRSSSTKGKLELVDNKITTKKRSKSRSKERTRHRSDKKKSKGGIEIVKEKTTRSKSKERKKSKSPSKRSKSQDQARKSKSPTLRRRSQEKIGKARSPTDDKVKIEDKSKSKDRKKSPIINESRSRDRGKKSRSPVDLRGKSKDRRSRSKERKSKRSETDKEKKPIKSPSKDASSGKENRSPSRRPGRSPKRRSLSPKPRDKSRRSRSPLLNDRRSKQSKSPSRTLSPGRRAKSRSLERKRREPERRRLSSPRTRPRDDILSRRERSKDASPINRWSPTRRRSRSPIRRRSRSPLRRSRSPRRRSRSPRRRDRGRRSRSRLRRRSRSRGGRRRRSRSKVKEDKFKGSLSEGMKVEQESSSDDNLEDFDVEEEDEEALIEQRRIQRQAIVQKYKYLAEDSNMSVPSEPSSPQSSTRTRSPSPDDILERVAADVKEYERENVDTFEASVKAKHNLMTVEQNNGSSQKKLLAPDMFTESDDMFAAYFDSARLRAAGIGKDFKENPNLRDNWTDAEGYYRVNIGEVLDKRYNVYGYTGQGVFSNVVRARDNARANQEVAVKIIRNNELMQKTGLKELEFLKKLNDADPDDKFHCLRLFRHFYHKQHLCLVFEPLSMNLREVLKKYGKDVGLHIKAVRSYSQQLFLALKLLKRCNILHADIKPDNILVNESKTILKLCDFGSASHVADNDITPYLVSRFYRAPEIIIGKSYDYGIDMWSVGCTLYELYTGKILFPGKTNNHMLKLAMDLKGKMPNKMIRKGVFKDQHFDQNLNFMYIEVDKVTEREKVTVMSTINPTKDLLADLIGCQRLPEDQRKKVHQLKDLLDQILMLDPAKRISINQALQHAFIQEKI
Chain of kinases in BCWM.1 cells (Homo sapiens, UniProt Q16512) (Q16512 2-942 limits assumed): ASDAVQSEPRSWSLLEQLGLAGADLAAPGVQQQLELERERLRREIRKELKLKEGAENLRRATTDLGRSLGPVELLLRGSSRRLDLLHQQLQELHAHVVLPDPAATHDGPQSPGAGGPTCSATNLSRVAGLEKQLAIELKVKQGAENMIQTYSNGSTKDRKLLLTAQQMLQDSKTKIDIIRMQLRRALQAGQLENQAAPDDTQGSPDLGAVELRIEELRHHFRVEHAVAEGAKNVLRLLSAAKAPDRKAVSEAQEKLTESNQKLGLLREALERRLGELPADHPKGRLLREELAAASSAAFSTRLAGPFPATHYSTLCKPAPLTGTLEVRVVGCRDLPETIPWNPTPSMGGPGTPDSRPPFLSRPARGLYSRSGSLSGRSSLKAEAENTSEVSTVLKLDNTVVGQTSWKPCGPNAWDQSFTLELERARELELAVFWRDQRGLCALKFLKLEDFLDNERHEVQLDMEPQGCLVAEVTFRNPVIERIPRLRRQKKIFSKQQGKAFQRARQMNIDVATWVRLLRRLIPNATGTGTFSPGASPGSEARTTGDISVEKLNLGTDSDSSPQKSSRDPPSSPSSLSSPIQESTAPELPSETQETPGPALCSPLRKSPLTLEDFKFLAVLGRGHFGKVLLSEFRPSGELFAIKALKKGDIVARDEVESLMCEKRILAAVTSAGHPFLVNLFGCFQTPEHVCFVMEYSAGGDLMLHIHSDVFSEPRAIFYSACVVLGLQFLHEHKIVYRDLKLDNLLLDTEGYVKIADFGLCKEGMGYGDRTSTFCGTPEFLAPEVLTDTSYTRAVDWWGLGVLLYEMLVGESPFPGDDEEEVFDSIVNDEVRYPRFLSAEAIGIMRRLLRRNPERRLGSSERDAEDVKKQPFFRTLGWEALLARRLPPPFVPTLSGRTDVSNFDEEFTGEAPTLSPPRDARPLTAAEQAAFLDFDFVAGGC
Chain of kinases in BCWM.1 cells (Homo sapiens, UniProt O95747) (O95747 2-527 limits assumed): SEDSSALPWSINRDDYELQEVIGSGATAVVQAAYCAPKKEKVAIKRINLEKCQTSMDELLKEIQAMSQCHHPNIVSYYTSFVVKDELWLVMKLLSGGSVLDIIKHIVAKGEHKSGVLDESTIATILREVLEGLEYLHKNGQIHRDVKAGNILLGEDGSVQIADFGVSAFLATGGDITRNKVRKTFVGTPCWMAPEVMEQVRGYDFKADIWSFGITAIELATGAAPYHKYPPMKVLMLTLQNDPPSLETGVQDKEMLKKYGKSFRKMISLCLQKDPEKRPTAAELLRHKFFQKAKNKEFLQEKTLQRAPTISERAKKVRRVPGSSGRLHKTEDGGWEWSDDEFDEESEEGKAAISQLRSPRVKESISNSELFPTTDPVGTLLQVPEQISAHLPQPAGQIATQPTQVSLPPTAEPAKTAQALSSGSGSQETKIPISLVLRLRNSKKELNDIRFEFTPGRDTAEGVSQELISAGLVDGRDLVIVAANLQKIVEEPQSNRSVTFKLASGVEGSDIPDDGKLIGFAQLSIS

Compound: C=CC(=O)N1CC[C@H](Nc2nccc(Nc3ncc(C(=O)Nc4c(C)cccc4C)s3)n2)C1 [Example I-3]
- % change of MS signal compared to control sample (kinases in BCWM.1 cells [1]): −47.2%
- % change of MS signal compared to control sample (kinases in BCWM.1 cells [2]): 2.5%
- % change of MS signal compared to control sample (kinases in BCWM.1 cells [3]): 11.8%
- % change of MS signal compared to control sample (kinases in BCWM.1 cells [4]): 4%
- % change of MS signal compared to control sample (kinases in BCWM.1 cells [5]): −6.5%
- % change of MS signal compared to control sample (kinases in BCWM.1 cells [6]): 21.2%
- % change of MS signal compared to control sample (kinases in BCWM.1 cells [7]): 27%
- % change of MS signal compared to control sample (kinases in BCWM.1 cells [8]): 0.9%
- % change of MS signal compared to control sample (kinases in BCWM.1 cells [9]): −3.4%
- % change of MS signal compared to control sample (kinases in BCWM.1 cells [10]): −9.9%
- % change of MS signal compared to control sample (kinases in BCWM.1 cells [11]; RSK1 domain1): −16.9%
- % change of MS signal compared to control sample (kinases in BCWM.1 cells [11]; RSK1 domain2): −20.8%
- % change of MS signal compared to control sample (kinases in BCWM.1 cells [12]; Lys2): 70%
- % change of MS signal compared to control sample (kinases in BCWM.1 cells [12]; Protein Kinase Domain): 67.9%
- % change of MS signal compared to control sample (kinases in BCWM.1 cells [13]): 17.3%
- % change of MS signal compared to control sample (kinases in BCWM.1 cells [14]): −6.2%
- % change of MS signal compared to control sample (kinases in BCWM.1 cells [15]): 22%
- % change of MS signal compared to control sample (kinases in BCWM.1 cells [16]): −1.4%
- % change of MS signal compared to control sample (kinases in BCWM.1 cells [17]): 40.2%
- % change of MS signal compared to control sample (kinases in BCWM.1 cells [18]): −7.6%
- % change of MS signal compared to control sample (kinases in BCWM.1 cells [19]): −23%
- % change of MS signal compared to control sample (kinases in BCWM.1 cells [20]): −29.4%
- % change of MS signal compared to control sample (kinases in BCWM.1 cells [21]): −8.2%
- % change of MS signal compared to control sample (kinases in BCWM.1 cells [22]): −17.7%
- % change of MS signal compared to control sample (kinases in BCWM.1 cells [23]): −12.1%
- % change of MS signal compared to control sample (kinases in BCWM.1 cells [24]): 39.9%
- % change of MS signal compared to control sample (kinases in BCWM.1 cells [25]): −9.6%
- % change of MS signal compared to control sample (kinases in BCWM.1 cells [26]; MST4, YSK1, Lys2): 15.5%
- % change of MS signal compared to control sample (kinases in BCWM.1 cells [26]; NEK6, NEK7, Lys2): −13.1%
- % change of MS signal compared to control sample (kinases in BCWM.1 cells [26]; PCTAIRE2, PCTAIRE3, Lys1): −12%
- % change of MS signal compared to control sample (kinases in BCWM.1 cells [26]; PI4KA, PI4KAP2, ATP): 12%
- % change of MS signal compared to control sample (kinases in BCWM.1 cells [26]; PKACa, PKCb, Lys2): 3.3%
- % change of MS signal compared to control sample (kinases in BCWM.1 cells [26]; ROCK1, ROCK2, Lys2): 12.5%
- % change of MS signal compared to control sample (kinases in BCWM.1 cells [26]; RSK1 domain1, RSK2 domain1, RSK3 domain1, Lys2): −7.3%
- % change of MS signal compared to control sample (kinases in BCWM.1 cells [26]; SRPK1, SRPK2, Lys1): 22.3%
- % change of MS signal compared to control sample (kinases in BCWM.1 cells [26]; TAO1, TAO3, Lys2): 14.3%
- % change of MS signal compared to control sample (kinases in BCWM.1 cells [26]; Wnk1, Wnk2, Wnk3, Lys2): −1.2%
- % change of MS signal compared to control sample (kinases in BCWM.1 cells [26]; Wnk1, Wnk2, ATP Loop): 6.8%
- % change of MS signal compared to control sample (kinases in BCWM.1 cells [26]; ZC1/HGK, ZC2/TNIK, ZC3/MINK, Lys2): −0.1%
- % change of MS signal compared to control sample (kinases in BCWM.1 cells [26]; p38d, p38g, Lys2): −0.7%
